In patent US5281628A, “9-amino-7-(substituted)-6-demethyl-6-deoxytetracyclines” (American Cyanamid Company, priority 1991, dated 1994):
Where a name gives a salt, the structure may show the parent alone. Read-outs that look alike come from different tables or passages of the source.

Key:
P. aeruginosa ATCC 27853 = test: MIC, microtiter broth dilution; format: cell-based; settings: Pseudomonas aeruginosa, ATCC27853, 18 h
Procedure: (§1) The minimum inhibitory concentration (MIC), the lowest concentration of the antibiotic which inhibits growth of the test organism, is determined by the microtiter broth dilution method using 0.1 ml Muller-Hinton II broth (Baltimore Biological Laboratories) per well. A suitable oxygen scavenger (i.e., cysteine or dithiothreitol) is added to the assay medium for the testing of compounds according to Formula I because of the sensitivity of those compounds to oxidation. An inoculum level of 1-5×10^5 CFU/ml and a range of antibiotic concentrations (32 0.004 μg/ml) are used.

[1] = system: S. aureus UBMS 88-4 (tetracycline-sensitive); test: MIC, microtiter broth dilution; format: cell-based; settings: Staphylococcus aureus, 18 h
Procedure: as §1

[2] = system: S. haemolyticus AVAH 88-3; test: MIC, microtiter broth dilution; format: cell-based; settings: Staphylococcus haemolyticus, AVAH883, 18 h
Procedure: as §1

[3] = system: Coagulase negative staphylococci CI 535; test: MIC, microtiter broth dilution; format: cell-based; settings: 18 h
Procedure: as §1

[4] = system: E. faecalis 12201 (vancomycin-resistant); test: MIC, microtiter broth dilution; format: cell-based; settings: Enterococcus faecalis, 18 h
Procedure: as §1

[5] = system: S. aureus CI 3300 (methicillin-resistant); test: MIC, microtiter broth dilution; format: cell-based; settings: Staphylococcus aureus, 18 h
Procedure: as §1

E. coli ATCC 25922 = test: MIC, microtiter broth dilution; format: cell-based; settings: Escherichia coli, ATCC25922, 18 h
Procedure: as §1

[6] = system: E. coli UBMS 90-5 (tetracycline-sensitive); test: MIC, microtiter broth dilution; format: cell-based; settings: Escherichia coli, 18 h
Procedure: as §1

S. aureus ATCC 29213 = test: MIC, microtiter broth dilution; format: cell-based; settings: Staphylococcus aureus, ATCC29213, 18 h
Procedure: as §1

S. marcescens FPOR 87-33 = test: MIC, microtiter broth dilution; format: cell-based; settings: Serratia marcescens, FPOR8733, 18 h
Procedure: as §1

E. faecalis CI 2735 = test: MIC, microtiter broth dilution; format: cell-based; settings: Enterococcus faecalis, CI2735, 18 h
Procedure: as §1

[7] = system: S. aureus IVES 2943 (methicillin-resistant); test: MIC, microtiter broth dilution; format: cell-based; settings: Staphylococcus aureus, 18 h
Procedure: as §1

[8] = system: S. aureus IVES 1983 (methicillin-resistant); test: MIC, microtiter broth dilution; format: cell-based; settings: Staphylococcus aureus, 18 h
Procedure: as §1

[9] = system: S. aureus UBMS 90-3 (tetracycline-sensitive); test: MIC, microtiter broth dilution; format: cell-based; settings: Staphylococcus aureus, 18 h
Procedure: as §1

[10] = system: S. aureus CI 2371 (methicillin-resistant); test: MIC, microtiter broth dilution; format: cell-based; settings: Staphylococcus aureus, 18 h
Procedure: as §1

S. aureus and E. coli = test: Acute lethal infections in mice, statements over several strains; format: in vivo; settings: S. aureus and E. coli carrying tetM
Procedure: The therapeutic effects of tetracyclines are determined against acute lethal infections with various staphylococcal and E. coli strains. Female mice, strain CD-1 Charles River Laboratories, (20±2 grams) are challenged by an intraperitoneal injection of sufficient bacteria (suspended in broth or hog gastric mucin) to kill non-treated controls within 24-48 hours. Antibacterial agents, contained in 0.5 ml of 0.2% aqueous agar, are administered subcutaneously or orally 30 minutes after infection. When an oral dosing schedule is used, animals are deprived of food for 5 hours before and 2 hours after infection. Five mice are treated at each dose level. The 7 day survival ratios from three separate tests are pooled for calculation of median effective dose (ED50).

E. coli UBMS 90-4 (tetM) = test: MIC, microtiter broth dilution; format: cell-based; settings: Escherichia coli, 18 h
Procedure: as §1

E. coli UBMS 89-1 (tetM) = test: MIC, microtiter broth dilution; format: cell-based; settings: Escherichia coli, 18 h
Procedure: as §1

[11] = system: X. maltophilia FPOR 87-210; test: MIC, microtiter broth dilution; format: cell-based; settings: Stenotrophomonas maltophilia, FPOR87210, 18 h, no cysteine stated
Procedure: as §1

[12] = system: E. coli UBMS 89-2 (tetracycline-sensitive); test: MIC, microtiter broth dilution; format: cell-based; settings: Escherichia coli, 18 h, no cysteine stated
Procedure: as §1

[13] = system: E. faecalis AMV 120 (tetM); test: MIC, microtiter broth dilution; format: cell-based; settings: Enterococcus faecalis, 18 h
Procedure: as §1

M. morganii NEMC 87-119 = test: MIC, microtiter broth dilution; format: cell-based; settings: Morganella morganii, NEMC87119, 18 h, no cysteine stated
Procedure: as §1

[14] = system: E. faecalis PAM 211 (tetN); test: MIC, microtiter broth dilution; format: cell-based; settings: Enterococcus faecalis, 18 h
Procedure: as §1

[15] = system: S. aureus UBMS 88-7 (tetK); test: microbe, parasite or virus in culture; format: cell-based; settings: Staphylococcus aureus, 18 h
Procedure: as §1

E. coli UBMS 88-1 (tetB) = test: microbe, parasite or virus in culture; format: cell-based; settings: Escherichia coli, 18 h
Procedure: as §1

[16] = in the presence of cysteine (0.05%)

Compound: CN(C)c1cc(N)c(O)c2c1C[C@H]1C[C@H]3[C@H](N(C)C)C(O)=C(C(N)=O)C(=O)[C@@]3(O)C(O)=C1C2=O [A, 9-Amino-7-(dimethylamino)-6-demethyl-6-deoxytetracycline hydrochloride]
- MIC (P. aeruginosa ATCC 27853; [16]): 2 µg/mL
- MIC [1, 16]: 0.015 µg/mL
- MIC ([2]; S. haemolyticus AVAH 88-3, in the presence of cysteine (0.05%), read-out: MIC): 0.06 µg/mL
- MIC [3, 16]: 1 µg/mL
- MIC [4, 16]: 0.5 µg/mL
- MIC [5, 16]: 0.25 µg/mL
- MIC (E. coli ATCC 25922; [16]): 0.25 µg/mL
- MIC [6, 16]: 0.25 µg/mL
- MIC (S. aureus ATCC 29213; [16]): 0.008 µg/mL
- MIC (S. marcescens FPOR 87-33; [16]): 4 µg/mL
- MIC (E. faecalis CI 2735; [16]): 0.5 µg/mL
- MIC [7, 16]: 0.5 µg/mL
- MIC [8, 16]: 0.5 µg/mL
- MIC [9, 16]: 0.015 µg/mL
- MIC [10, 16]: 0.5 µg/mL
- ED50 compared with B, strains which carry the tetM resistance determinant (S. aureus and E. coli): Lowered ED50 's

Compound: CN(C)c1ccc(O)c2c1C[C@H]1C[C@H]3[C@H](N(C)C)C(O)=C(C(N)=O)C(=O)[C@@]3(O)C(O)=C1C2=O [B, 7-(Dimethylamino)-6-demethyl-6-deoxytetracycline hydrochloride]
- MIC (P. aeruginosa ATCC 27853; no cysteine stated): 4 µg/mL
- MIC (E. coli UBMS 90-4 (tetM)): > 32 µg/mL
- MIC ([1]; no cysteine stated): 0.008 µg/mL
- MIC [2]: 0.12 µg/mL
- MIC (E. coli UBMS 89-1 (tetM)): 8 µg/mL
- MIC ([3]; no cysteine stated): 8 µg/mL
- MIC ([4]; no cysteine stated): 4 µg/mL
- MIC [11]: 0.06 µg/mL
- MIC ([5]; no cysteine stated): 8 µg/mL
- MIC (E. coli ATCC 25922; no cysteine stated): 0.25 µg/mL
- MIC ([6]; no cysteine stated): 0.5 µg/mL
- MIC [12]: 0.5 µg/mL
- MIC [13]: 16 µg/mL
- MIC (S. aureus ATCC 29213; no cysteine stated): ≤ 0.004 µg/mL
- MIC (S. marcescens FPOR 87-33; no cysteine stated): 2 µg/mL
- MIC (M. morganii NEMC 87-119): 2 µg/mL
- MIC (E. faecalis CI 2735; no cysteine stated): 4 µg/mL
- MIC ([7]; no cysteine stated): 1 µg/mL
- MIC ([8]; no cysteine stated): 1 µg/mL
- MIC ([9]; no cysteine stated): 0.015 µg/mL
- MIC ([10]; no cysteine stated): 4 µg/mL
- MIC [14]: 16 µg/mL
- MIC [15]: 0.03 µg/mL
- MIC (E. coli UBMS 88-1 (tetB)): 8 µg/mL
